This note sets out measurements from US7419980B2, “Fused-aryl and heteroaryl derivatives and methods of their use” (Wyeth, priority 2003, dated 2008).

As a reminder, the inhibition is the percentage by which the read-out fell short of the control. A word on the EC50: it is the concentration giving half of the maximal effect.

This experiment has as its target T1, human hNET (Homo sapiens, UniProt P23975).
T1 construct: expressed in transfected cells; host or cells: MDCK-Net6 (MDCK cells stably transfected with hNET)
Nature of the experiment: Norepinephrine (NE) uptake assay in MDCK-Net6 cells. Format: cell-based. The procedure:
MDCK-Net6 cells, stably transfected with human hNET (Pacholczyk, T., R. D. Blakely, and S. G. Amara, Nature, 1991, 350(6316): p. 350-4) were cultured in growth medium containing high glucose DMEM (Gibco, Cat. No. 11995), 10% FBS (dialyzed, heat-inactivated, US Bio-Technologies, Lot FBD1129HI) and 500 μg/ml G418 (Gibco, Cat. No. 10131). Cells were plated at 300,000/T75 flask and cells were split twice weekly. The JAR cell line (human placental choriocarcinoma) was purchased from ATCC (Cat. No. HTB-144). The cells were cultured in growth medium containing RPMI 1640 (Gibco, Cat. No. 72400), 10% FBS (Irvine, Cat. No. 3000), 1% sodium pyruvate (Gibco, Cat. No. 1136) and 0.25% glucose. Cells were plated at 250,000 cells/T75 flask and split twice weekly. For all assays, cells were plated in Wallac 96-well sterile plates (PerkinElmer, Cat. No. 3983498).
On day 1, cells were plated at 3,000 cells/well in growth medium and maintained in a cell incubator (37° C., 5% CO2). On day 2, growth medium was replaced with 200 μl of assay buffer (25 mM HEPES; 120 mM NaCl; 5 mM KCl; 2.5 mM CaCl2; 1.2 mM MgSO4; 2 mg/ml glucose (pH 7.4, 37° C.)) containing 0.2 mg/ml ascorbic acid and 10 μM pargyline. Plates containing cells with 200 μl of assay buffer were equilibrated for 10 minutes at 37° C. prior to addition of compounds. A stock solution of desipramine was prepared in DMSO (10 mM) and delivered to triplicate wells containing cells for a final tert concentration of 1 μM. Data from these wells were used to define non-specific NE uptake (minimum NE uptake). Test compounds were prepared in DMSO (10 mM) and diluted in assay buffer according to tert range (1 to 10,000 nM). Twenty-five microliters of assay buffer (maximum NE uptake) or tert compound were added directly to triplicate wells containing cells in 200 μl of assay buffer. The cells in assay buffer with tert compounds were incubated for 20 minutes at 37° C. To initiate the NE uptake, [^3H]NE diluted in assay buffer (120 nM final assay concentration) was delivered in 25 μl aliquots to each well and the plates were incubated for 5 minutes (37° C.). The reaction was terminated by decanting the supernatant from the plate. The plates containing cells were washed twice with 200 μl assay buffer (37° C.) to remove free radioligand. The plates were then inverted, left to dry for 2 minutes, then reinverted and air-dried for an additional 10 minutes. The cells were lysed in 25 μl of 0.25 N NaOH solution (4° C.), placed on a shake table and vigorously shaken for 5 minutes. After cell lysis, 75 μl of scintillation cocktail was added to each well and the plates were sealed with film tape. The plates were returned to the shake table and vigorously shaken for a minimum of 10 minutes to ensure adequate partitioning of organic and aqueous solutions. The plates were counted in a Wallac Microbeta counter (PerkinElmer) to collect the raw cpm data.
For each experiment, a data stream of cpm values collected from the Wallac Microbeta counter was downloaded to a Microsoft Excel statistical application program. Calculations of EC50 values were made using the transformed-both-sides logistic dose response program written by Wyeth Biometrics Department. The statistical program uses mean cpm values from wells representing maximum binding or uptake (assay buffer) and mean cpm values from wells representing minimum binding or uptake ((1 μM desipramine (hNET) or 1 μM paroxetine (hSERT)). Estimation of the EC50 value was completed on a log scale and the line was fit between the maximum and minimum binding or uptake values. All graphic data representation was generated by normalizing each data point to a mean percent based on the maximum and minimum binding or uptake values. The EC50 values reported from multiple experiments were calculated by pooling the raw data from each experiment and analyzing the pooled data as one experiment.

Setting [1] is: 1 μM test compound, [3H]NE uptake, MDCK-Net6 cells, read-out: % Inhibition @ 1 μM (hNET).
The mark [2] stands for this setting: MDCK-Net6, read-out: % Inhibition @ 1 μM (hNET).

Where a name gives a salt, the structure may show the parent alone. Read-outs that look alike come from different tables or passages of the source.

T1 sequence (P23975 whole entry): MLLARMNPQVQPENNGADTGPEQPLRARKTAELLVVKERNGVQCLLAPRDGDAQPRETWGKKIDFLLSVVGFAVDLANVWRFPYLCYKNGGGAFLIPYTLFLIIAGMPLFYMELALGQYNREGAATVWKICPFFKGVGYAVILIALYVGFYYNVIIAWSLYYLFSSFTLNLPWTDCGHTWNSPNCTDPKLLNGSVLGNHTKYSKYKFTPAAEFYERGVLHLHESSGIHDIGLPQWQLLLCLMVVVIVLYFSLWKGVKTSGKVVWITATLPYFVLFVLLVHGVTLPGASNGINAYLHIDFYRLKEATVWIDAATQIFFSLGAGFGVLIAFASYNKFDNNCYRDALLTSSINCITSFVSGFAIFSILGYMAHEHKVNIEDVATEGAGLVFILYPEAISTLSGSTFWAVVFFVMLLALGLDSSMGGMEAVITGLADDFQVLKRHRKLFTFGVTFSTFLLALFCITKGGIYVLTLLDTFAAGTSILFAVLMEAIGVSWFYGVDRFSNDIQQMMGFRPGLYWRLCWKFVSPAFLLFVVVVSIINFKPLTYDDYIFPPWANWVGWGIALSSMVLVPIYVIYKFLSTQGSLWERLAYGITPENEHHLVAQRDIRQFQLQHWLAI

As to `CN1CCC(O)(C(CN2CCOCC2)c2ccc3ccccc3c2)CC1` (stereo not shown) [Example 102, 1-methyl-4-[2-morpholin-4-yl-1-(2-naphthyl)ethyl]piperidin-4-ol Hydrochloride], the inhibition at 1 µM under setting [1] amounted to 3%. Take `OC1(C(CN2CCNCC2)c2csc(Cl)c2)CCCCC1` (stereo not shown) [Example 144, 1-[1-(5-chlorothien-3-yl)-2-piperazin-1-ylethyl]cyclohexanol Dihydrochloride]: the inhibition at 1 µM under setting [2] came out at 86%. The same molecule had an EC50 ([3H]NE uptake, MDCK-Net6 cells) of 100 nM. On to `OC1(C(CN2CCNCC2)c2csc3ccccc23)CCCCC1` (stereo not shown) [Example 146, 1-[1-(1-benzothien-3-yl)-2-piperazin-1-ylethyl]cyclohexanol Dihydrochloride], for which the inhibition at 1 µM under setting [2] came to 82%. In addition, where the note is “[3H]NE uptake, MDCK-Net6 cells”, the EC50 stood at 120 nM. For `CCC1CCC(O)(C(CN2CCNCC2)c2cccc3ccccc23)CC1` (stereo not shown) [Example 91, 4-ethyl-1-[1-(1-naphthyl)-2-piperazin-1-ylethyl]cyclohexanol Dihydrochloride], the inhibition at 1 µM under setting [1] is 14%. Still for that read-out and setting: in the case of `Cn1cc(C(CN2CCNCC2)C2(O)CCCCC2)c2ccccc21` (stereo not shown) [Example 154, 1-[1-(1-methyl-1H-indol-3-yl)-2-piperazin-1-ylethyl]cyclohexanol Dihydrochloride] it was 32%. `OC1(C(CN2CCNCC2)c2cc(Cl)sc2Cl)CCCCC1` (stereo not shown) [Example 141, 1-[1-(2,5-dichlorothien-3-yl)-2-piperazine-1-ylethyl]cyclohexanol Dihydrochloride]: the inhibition at 1 µM under setting [2] was found to be 94%. Also, it took 240 nM to reach a half-maximal effect ([3H]NE uptake, MDCK-Net6 cells) (EC50). On to `CN1CCN(CC(c2ccc3ccccc3c2)C2(O)CCCCC2)CC1` (stereo not shown) [Example 64, 1-[2-(4-methylpiperazin-1-yl)-1-(2-naphthyl)ethyl]cyclohexanol Dihydrochloride], for which the inhibition at 1 µM under setting [1] is 28%. The same measure, in the same setting: in the case of `OC1(C(CN2CCNCC2)c2ccc(Br)s2)CCCCC1` (stereo not shown) [Example 143, 1-[1-(5-bromothien-2-yl)-2-piperazin-1-ylethyl]cyclohexanol Dihydrochloride] it was 47%; in that of `OC1(C(CN2CCNCC2)c2c[nH]c3ccccc23)CCCCC1` (stereo not shown) [Example 155, 1-[1-(1H-indol-3-yl)-2-piperazin-1-ylethyl]cyclohexanol Dihydrochloride], 21%. In the case of `OC1(C(CN2CCNCC2)c2cccc3ccccc23)CCC1` (stereo not shown) [Example 68, 1-[1-(1-naphthyl)-2-piperazin-1-ylethyl]cyclobutanol Dihydrochloride], the inhibition at 1 µM under setting [1] is 23%. On the same count and under the same terms, in the case of `OC1(C(CN2CCNCC2)c2cccc3ccccc23)CCCC1` (stereo not shown) [Example 45, 1-[1-(1-naphthyl)-2-piperazin-1-ylethyl]cyclopentanol Dihydrochloride] it was 44%; in that of `CN1CCN(CC(c2cccc3ccccc23)C2(O)CCCCCC2)CC1` (stereo not shown) [Example 272, 1-[2-(4-methylpiperazin-1-yl)-1-(1-naphthyl)ethyl]cycloheptanol Dihydrochloride], 44%. Still for that read-out and setting: in the case of `CN1CCN(CC(c2cccc3ccccc23)C2(O)CCC2)CC1` (stereo not shown) [Example 69, 1-[2-(4-methylpiperazin-1-yl)-1-(1-naphthyl)ethyl]cyclobutanol Dihydrochloride] it was 26%.
